Data reported in the supplement of paper PMC8612539.
In brackets after ≈: the same amount, converted by molar mass.

What was measured:
Enterococcus spp. = assay: minimum inhibitory concentration (MIC)
Method: (§1)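 Broth microdilution MIC (Sensititre BOPO7F bovine plate, CLSI methods) of 19 antimicrobials against field isolates of P. multocida, M. haemolytica, H. somni (deep nasopharyngeal swabs) and E. coli, Enterococcus spp. (rectal swabs) from weaned dairy heifers. Incubation 16-24 h at 35 C. MIC is the lowest concentration preventing visible growth. Values with <= or > lie at the tested range limits. Trimethoprim-sulfamethoxazole is given as the trimethoprim component of a 1:19 mixture.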

Mannheimia haemolytica = assay: minimum inhibitory concentration (MIC)
Method: as §1

CNC(C)C1CCC(N)C(OC2C(N)CC(N)C(OC3OCC(C)(O)C(NC)C3O)C2O)O1 (centres undefined) [Gentamicin]
minimum inhibitory concentration [µg/mL]
Conditions | Enterococcus spp. | Mannheimia haemolytica
isolate (source animal id): 2 | 8 (≈ 16.8 µM) | –
isolate (source animal id): 8 | – | 2 (≈ 4.19 µM)
isolate (source animal id): 13 | – | 2 (≈ 4.19 µM)
isolate (source animal id): 18 | – | 2 (≈ 4.19 µM)
isolate (source animal id): 21 | – | 2 (≈ 4.19 µM)
isolate (source animal id): 25 | – | 4 (≈ 8.38 µM)
isolate (source animal id): 27 | – | 4 (≈ 8.38 µM)
isolate (source animal id): 28 | – | 2 (≈ 4.19 µM)
isolate (source animal id): 30 | – | 2 (≈ 4.19 µM)
isolate (source animal id): 31 | – | 4 (≈ 8.38 µM)
isolate (source animal id): 32 | – | 4 (≈ 8.38 µM)
isolate (source animal id): 34 | – | 4 (≈ 8.38 µM)
isolate (source animal id): 35 | 16 (≈ 33.5 µM) | –
isolate (source animal id): 36 | – | 4 (≈ 8.38 µM)
isolate (source animal id): 37 | – | 4 (≈ 8.38 µM)
isolate (source animal id): 40 | – | 4 (≈ 8.38 µM)
isolate (source animal id): 41 | – | 2 (≈ 4.19 µM)
isolate (source animal id): 42 | 8 (≈ 16.8 µM) | –
isolate (source animal id): 43 | – | 4 (≈ 8.38 µM)
isolate (source animal id): 44 | 16 (≈ 33.5 µM) | –
isolate (source animal id): 46 | – | 4 (≈ 8.38 µM)
isolate (source animal id): 49 | – | 4 (≈ 8.38 µM)
isolate (source animal id): 50 | – | 4 (≈ 8.38 µM)
isolate (source animal id): 51 | – | 2 (≈ 4.19 µM)
isolate (source animal id): 52 | – | 2 (≈ 4.19 µM)
isolate (source animal id): 53 | – | 4 (≈ 8.38 µM)
isolate (source animal id): 55 | – | 2 (≈ 4.19 µM)
isolate (source animal id): 56 | – | 2 (≈ 4.19 µM)
isolate (source animal id): 57 | – | 16 (≈ 33.5 µM)
isolate (source animal id): 79 | 16 (≈ 33.5 µM) | –
isolate (source animal id): 88 | 4 (≈ 8.38 µM) | –
isolate (source animal id): 91 | 4 (≈ 8.38 µM) | –
isolate (source animal id): 92 | 2 (≈ 4.19 µM) | –
isolate (source animal id): 100 | – | 4 (≈ 8.38 µM)
isolate (source animal id): 103 | – | 4 (≈ 8.38 µM)
isolate (source animal id): 107 | – | 4 (≈ 8.38 µM)
isolate (source animal id): 108 | – | 4 (≈ 8.38 µM)
isolate (source animal id): 111 | 4 (≈ 8.38 µM) | –
isolate (source animal id): 112 | – | 2 (≈ 4.19 µM)
isolate (source animal id): 113 | – | 16 (≈ 33.5 µM)
isolate (source animal id): 121 | – | 4 (≈ 8.38 µM)
isolate (source animal id): 122 | 16 (≈ 33.5 µM) | 4 (≈ 8.38 µM)
isolate (source animal id): 123 | 8 (≈ 16.8 µM) | 16 (≈ 33.5 µM)
isolate (source animal id): 126 | – | 4 (≈ 8.38 µM)
isolate (source animal id): 133 | 16 (≈ 33.5 µM) | 2 (≈ 4.19 µM)
isolate (source animal id): 135 | – | > 16
isolate (source animal id): 138 | – | 4 (≈ 8.38 µM)
isolate (source animal id): 141 | – | 16 (≈ 33.5 µM)
isolate (source animal id): 142 | – | 4 (≈ 8.38 µM)
isolate (source animal id): 145 | – | 4 (≈ 8.38 µM)
isolate (source animal id): 149 | – | 2 (≈ 4.19 µM)
isolate (source animal id): 151 | – | 2 (≈ 4.19 µM)
isolate (source animal id): 152 | – | 2 (≈ 4.19 µM)
isolate (source animal id): 154 | – | 2 (≈ 4.19 µM)
isolate (source animal id): 158 | 16 (≈ 33.5 µM) | –
isolate (source animal id): 159 | – | 4 (≈ 8.38 µM)
isolate (source animal id): 162 | – | 4 (≈ 8.38 µM)
isolate (source animal id): 168 | 8 (≈ 16.8 µM) | –
isolate (source animal id): 169 | 8 (≈ 16.8 µM) | –
isolate (source animal id): 170 | – | 4 (≈ 8.38 µM)
isolate (source animal id): 171 | 4 (≈ 8.38 µM) | 2 (≈ 4.19 µM)
isolate (source animal id): 172 | – | 4 (≈ 8.38 µM)
isolate (source animal id): 173 | – | 4 (≈ 8.38 µM)
isolate (source animal id): 175 | 8 (≈ 16.8 µM) | –
isolate (source animal id): 177 | 8 (≈ 16.8 µM) | –
isolate (source animal id): 179 | – | 4 (≈ 8.38 µM)
isolate (source animal id): 180 | – | 2 (≈ 4.19 µM)
isolate (source animal id): 181 | 8 (≈ 16.8 µM) | –
isolate (source animal id): 182 | 8 (≈ 16.8 µM) | –
isolate (source animal id): 183 | 8 (≈ 16.8 µM) | 2 (≈ 4.19 µM)
isolate (source animal id): 186 | – | 4 (≈ 8.38 µM)
isolate (source animal id): 187 | 8 (≈ 16.8 µM) | 2 (≈ 4.19 µM)
isolate (source animal id): 188 | – | 2 (≈ 4.19 µM)
isolate (source animal id): 190 | 8 (≈ 16.8 µM) | 2 (≈ 4.19 µM)
isolate (source animal id): 191 | – | 4 (≈ 8.38 µM)
isolate (source animal id): 192 | – | 2 (≈ 4.19 µM)
isolate (source animal id): 194 | 4 (≈ 8.38 µM) | –
isolate (source animal id): 195 | 8 (≈ 16.8 µM) | –
isolate (source animal id): 197 | 8 (≈ 16.8 µM) | –
isolate (source animal id): 201 | – | 2 (≈ 4.19 µM)
isolate (source animal id): 202 | – | 4 (≈ 8.38 µM)
isolate (source animal id): 209 | – | 4 (≈ 8.38 µM)
isolate (source animal id): 211 | 8 (≈ 16.8 µM) | 2 (≈ 4.19 µM)
isolate (source animal id): 214 | 16 (≈ 33.5 µM) | –
isolate (source animal id): 220 | – | 4 (≈ 8.38 µM)
isolate (source animal id): 221 | – | 4 (≈ 8.38 µM)
isolate (source animal id): 222 | 8 (≈ 16.8 µM) | –
isolate (source animal id): 223 | 8 (≈ 16.8 µM) | 4 (≈ 8.38 µM)
isolate (source animal id): 228 | 8 (≈ 16.8 µM) | –
isolate (source animal id): 230 | 8 (≈ 16.8 µM) | –
isolate (source animal id): 233 | – | 4 (≈ 8.38 µM)
isolate (source animal id): 235 | 4 (≈ 8.38 µM) | –
isolate (source animal id): 236 | 4 (≈ 8.38 µM) | –
isolate (source animal id): 237 | – | 4 (≈ 8.38 µM)
isolate (source animal id): 239 | 4 (≈ 8.38 µM) | –
isolate (source animal id): 241 | 4 (≈ 8.38 µM) | 4 (≈ 8.38 µM)
isolate (source animal id): 244 | 4 (≈ 8.38 µM) | –
isolate (source animal id): 246 | 8 (≈ 16.8 µM) | –
isolate (source animal id): 247 | 4 (≈ 8.38 µM) | –
isolate (source animal id): 250 | 8 (≈ 16.8 µM) | –
isolate (source animal id): 252 | 8 (≈ 16.8 µM) | 4 (≈ 8.38 µM)
isolate (source animal id): 253 | – | 4 (≈ 8.38 µM)
isolate (source animal id): 259 | – | 2 (≈ 4.19 µM)
isolate (source animal id): 260 | – | 4 (≈ 8.38 µM)
isolate (source animal id): 262 | – | 2 (≈ 4.19 µM)
isolate (source animal id): 268 | 4 (≈ 8.38 µM) | –
isolate (source animal id): 282 | 8 (≈ 16.8 µM) | 2 (≈ 4.19 µM)
isolate (source animal id): 285 | 16 (≈ 33.5 µM) | –
isolate (source animal id): 287 | – | 4 (≈ 8.38 µM)
isolate (source animal id): 288 | – | 2 (≈ 4.19 µM)
isolate (source animal id): 289 | 4 (≈ 8.38 µM) | –
isolate (source animal id): 290 | 4 (≈ 8.38 µM) | –
isolate (source animal id): 291 | – | 2 (≈ 4.19 µM)
isolate (source animal id): 293 | – | 4 (≈ 8.38 µM)
isolate (source animal id): 296 | 8 (≈ 16.8 µM) | –
isolate (source animal id): 298 | 4 (≈ 8.38 µM) | 2 (≈ 4.19 µM)
isolate (source animal id): 299 | – | 2 (≈ 4.19 µM)
isolate (source animal id): 300 | – | 2 (≈ 4.19 µM)
isolate (source animal id): 301 | 4 (≈ 8.38 µM) | –
isolate (source animal id): 302 | – | 2 (≈ 4.19 µM)
isolate (source animal id): 304 | – | 2 (≈ 4.19 µM)
isolate (source animal id): 306 | – | 2 (≈ 4.19 µM)
isolate (source animal id): 308 | – | 2 (≈ 4.19 µM)
isolate (source animal id): 309 | – | 2 (≈ 4.19 µM)
isolate (source animal id): 310 | 4 (≈ 8.38 µM) | –
isolate (source animal id): 313 | – | 4 (≈ 8.38 µM)
isolate (source animal id): 318 | – | 2 (≈ 4.19 µM)
isolate (source animal id): 320 | 8 (≈ 16.8 µM) | 2 (≈ 4.19 µM)
isolate (source animal id): 321 | – | 4 (≈ 8.38 µM)
isolate (source animal id): 323 | – | 2 (≈ 4.19 µM)
isolate (source animal id): 324 | – | 4 (≈ 8.38 µM)
isolate (source animal id): 326 | – | 4 (≈ 8.38 µM)
isolate (source animal id): 328 | – | 4 (≈ 8.38 µM)
isolate (source animal id): 329 | – | 4 (≈ 8.38 µM)
isolate (source animal id): 331 | 8 (≈ 16.8 µM) | –
isolate (source animal id): 333 | 4 (≈ 8.38 µM) | 4 (≈ 8.38 µM)
isolate (source animal id): 335 | – | 4 (≈ 8.38 µM)
isolate (source animal id): 338 | – | 4 (≈ 8.38 µM)
isolate (source animal id): 341 | 16 (≈ 33.5 µM) | –
